Measurements taken from patent US11739078B2, “Methods of inhibiting kinases” (INSILICO MEDICINE IP LIMITED, priority 2019, dated 2023).
Where two headings read alike, the source gives them in different places.

How the values were obtained:
TNIK = TNIK (Homo sapiens (Human), UniProt Q9UKE5); experiment: TNIK enzymatic assay (radiometric kinase inhibition); format: biochemical
Experimental: The compounds were studied for function as TNIK inhibitors to generate the data of Table 1. […] (specific activity and concentration as required). The reaction is initiated by the addition of the Mg/ATP mix. After incubation for 40 minutes at room temperature, the reaction is stopped by the addition of phosphoric acid to a concentration of 0.5%.

MAP4K4 (h) = MAP4K4 (h) (Homo sapiens (Human), UniProt O95819); experiment: MAP4K4 in vitro kinase assay (radiometric); format: biochemical; details: read-out: MAP4K4_IC50
Experimental: (specific activity and concentration as required). The reaction is initiated by the addition of the Mg/ATP mix. After incubation for 40 minutes at room temperature, the reaction is stopped by the addition of phosphoric acid to a concentration of 0.5%.

[1] = TNIK enzymatic assay, Table 1, read-out: IC50

Sequence of TNIK (Q9UKE5 whole entry): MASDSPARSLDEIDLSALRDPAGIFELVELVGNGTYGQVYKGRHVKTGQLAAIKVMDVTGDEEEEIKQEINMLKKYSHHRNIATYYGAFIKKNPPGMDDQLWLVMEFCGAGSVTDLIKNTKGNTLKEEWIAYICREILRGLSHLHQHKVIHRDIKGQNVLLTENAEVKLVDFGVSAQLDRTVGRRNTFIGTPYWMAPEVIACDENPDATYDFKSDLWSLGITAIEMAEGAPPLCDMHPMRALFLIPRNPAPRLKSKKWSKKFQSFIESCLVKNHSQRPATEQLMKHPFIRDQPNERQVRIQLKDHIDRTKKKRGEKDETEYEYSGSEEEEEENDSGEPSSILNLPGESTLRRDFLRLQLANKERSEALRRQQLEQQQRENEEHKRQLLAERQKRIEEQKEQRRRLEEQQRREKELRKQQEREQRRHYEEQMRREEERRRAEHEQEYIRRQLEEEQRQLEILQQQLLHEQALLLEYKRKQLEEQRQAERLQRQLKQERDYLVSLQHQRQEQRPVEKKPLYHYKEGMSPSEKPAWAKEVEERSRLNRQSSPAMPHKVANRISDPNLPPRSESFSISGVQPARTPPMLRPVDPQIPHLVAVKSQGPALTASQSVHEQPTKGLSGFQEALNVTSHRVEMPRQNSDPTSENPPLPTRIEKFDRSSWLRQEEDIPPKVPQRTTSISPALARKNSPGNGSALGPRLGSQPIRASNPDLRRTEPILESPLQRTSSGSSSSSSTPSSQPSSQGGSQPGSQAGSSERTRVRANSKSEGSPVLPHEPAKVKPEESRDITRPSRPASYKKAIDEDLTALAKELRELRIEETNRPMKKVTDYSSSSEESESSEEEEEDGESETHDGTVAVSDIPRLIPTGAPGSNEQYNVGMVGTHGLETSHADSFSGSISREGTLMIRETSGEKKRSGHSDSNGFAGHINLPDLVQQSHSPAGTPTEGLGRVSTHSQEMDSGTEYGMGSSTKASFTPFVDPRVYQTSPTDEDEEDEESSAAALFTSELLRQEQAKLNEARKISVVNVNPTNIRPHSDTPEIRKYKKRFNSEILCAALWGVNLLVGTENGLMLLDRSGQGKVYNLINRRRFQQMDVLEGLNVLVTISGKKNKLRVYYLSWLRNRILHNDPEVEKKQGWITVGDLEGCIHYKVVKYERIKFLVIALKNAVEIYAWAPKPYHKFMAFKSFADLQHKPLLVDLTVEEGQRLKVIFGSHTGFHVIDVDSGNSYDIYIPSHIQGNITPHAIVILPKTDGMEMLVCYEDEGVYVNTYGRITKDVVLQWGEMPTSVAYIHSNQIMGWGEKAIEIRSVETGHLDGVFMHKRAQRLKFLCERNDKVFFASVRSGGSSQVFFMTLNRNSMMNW
Sequence of MAP4K4 (h) (O95819 whole entry): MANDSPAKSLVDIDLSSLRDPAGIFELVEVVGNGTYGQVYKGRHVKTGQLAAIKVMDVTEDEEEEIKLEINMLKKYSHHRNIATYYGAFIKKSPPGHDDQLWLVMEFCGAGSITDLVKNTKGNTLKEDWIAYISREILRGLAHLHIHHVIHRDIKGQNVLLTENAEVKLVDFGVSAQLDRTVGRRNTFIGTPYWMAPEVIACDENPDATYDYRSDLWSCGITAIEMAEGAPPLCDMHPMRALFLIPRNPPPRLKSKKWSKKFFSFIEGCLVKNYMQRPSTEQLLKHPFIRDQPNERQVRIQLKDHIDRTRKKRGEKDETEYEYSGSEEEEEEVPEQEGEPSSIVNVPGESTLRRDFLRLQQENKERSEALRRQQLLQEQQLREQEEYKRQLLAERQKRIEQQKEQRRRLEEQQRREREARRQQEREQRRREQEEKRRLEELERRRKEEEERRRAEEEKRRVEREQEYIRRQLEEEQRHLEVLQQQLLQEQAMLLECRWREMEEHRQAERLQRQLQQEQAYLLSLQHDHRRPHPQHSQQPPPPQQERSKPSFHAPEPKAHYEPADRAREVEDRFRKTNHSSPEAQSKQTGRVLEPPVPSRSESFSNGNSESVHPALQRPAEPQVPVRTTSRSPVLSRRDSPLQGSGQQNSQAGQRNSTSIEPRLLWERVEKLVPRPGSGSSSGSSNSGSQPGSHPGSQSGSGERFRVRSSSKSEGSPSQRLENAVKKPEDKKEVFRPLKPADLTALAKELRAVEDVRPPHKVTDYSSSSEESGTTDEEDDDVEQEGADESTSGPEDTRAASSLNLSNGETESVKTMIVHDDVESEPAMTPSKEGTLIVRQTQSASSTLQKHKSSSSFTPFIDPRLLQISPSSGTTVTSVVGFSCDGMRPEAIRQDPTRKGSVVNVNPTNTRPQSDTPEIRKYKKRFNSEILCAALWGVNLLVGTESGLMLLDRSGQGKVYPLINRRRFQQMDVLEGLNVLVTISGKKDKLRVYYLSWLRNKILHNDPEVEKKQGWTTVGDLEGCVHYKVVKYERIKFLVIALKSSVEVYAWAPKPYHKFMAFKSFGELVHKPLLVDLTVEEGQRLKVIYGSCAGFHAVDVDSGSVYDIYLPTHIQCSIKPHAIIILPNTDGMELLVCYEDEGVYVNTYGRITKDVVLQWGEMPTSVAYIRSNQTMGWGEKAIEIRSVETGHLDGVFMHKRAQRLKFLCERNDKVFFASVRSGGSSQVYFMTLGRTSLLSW

Cc1ccc(C)c(NC(=O)c2ccc(-c3c(-c4ccc(F)cc4)ncn3C3CCCC3)o2)c1 [Compound 31, 5-(1-cyclopentyl-4-(4-fluorophenyl)-1H-imidazol-5-yl)-N-(2,5-dimethylphenyl)furan-2-carboxamide]
IC50 (TNIK; [1]): 135 nM
IC50 (TNIK; read-out: TNIK_IC50): 135 nM
IC50 (MAP4K4 (h)): 457 nM

Cc1ccc(NC(=O)c2ccc(-c3c(-c4ccc(F)cc4)ncn3C3CCCC3)o2)c(C)c1 [Compound 32, 5-(1-cyclopentyl-4-(4-fluorophenyl)-1H-imidazol-5-yl)-N-(2,4-dimethylphenyl)furan-2-carboxamide]
IC50 (TNIK; [1]): 12 nM
IC50 (TNIK; read-out: TNIK_IC50): 12 nM
IC50 (MAP4K4 (h)): 96.9 nM

CCOC(=O)c1ccc(NC(=O)c2ccc(-c3c(-c4ccc(F)cc4)ncn3C3CCCC3)o2)cc1 [Compound 33, ethyl 4-(5-(1-cyclopentyl-4-(4-fluorophenyl)-1H-imidazol-5-yl)furan-2-carboxamido)benzoate]
IC50 (TNIK; [1]): 27 nM
IC50 (TNIK; read-out: TNIK_IC50): 27 nM
IC50 (MAP4K4 (h)): 87.3 nM

Cc1cc(C)c(NC(=O)c2ccc(-c3c(-c4ccc(F)cc4)ncn3C3CCCC3)o2)c(C)c1 [Compound 34, 5-(1-cyclopentyl-4-(4-fluorophenyl)-1H-imidazol-5-yl)-N-mesitylfuran-2-carboxamide]
IC50 (TNIK; [1]): 319 nM
IC50 (TNIK; read-out: TNIK_IC50): 319 nM
IC50 (MAP4K4 (h)): 240 nM

CC(=O)c1cccc(NC(=O)c2ccc(-c3c(-c4ccc(F)cc4)ncn3C3CCCC3)o2)c1 [Compound 35, N-(3-acetylphenyl)-5-(1-cyclopentyl-4-(4-fluorophenyl)-1H-imidazol-5-yl)furan-2-carboxamide]
IC50 (TNIK; [1]): 151 nM
IC50 (TNIK; read-out: TNIK_IC50): 151 nM
IC50 (MAP4K4 (h)): 274 nM

CSc1cccc(NC(=O)c2ccc(-c3c(-c4ccc(F)cc4)ncn3C3CCCC3)o2)c1 [Compound 36, 5-(1-cyclopentyl-4-(4-fluorophenyl)-1H-imidazol-5-yl)-N-(3-(methylthio)phenyl)furan-2-carboxamide]
IC50 (TNIK; [1]): 110 nM
IC50 (TNIK; read-out: TNIK_IC50): 110 nM
IC50 (MAP4K4 (h)): 326 nM

CCc1cccc(C)c1NC(=O)c1ccc(-c2c(-c3ccc(F)cc3)ncn2C2CCCC2)o1 [Compound 37, 5-(1-cyclopentyl-4-(4-fluorophenyl)-1H-imidazol-5-yl)-N-(2-ethyl-6-methylphenyl)furan-2-carboxamide]
IC50 (TNIK; [1]): 900 nM
IC50 (TNIK; read-out: TNIK_IC50): 900 nM
IC50 (MAP4K4 (h)): > 1000 nM

CC(C)c1ccc(NC(=O)c2ccc(-c3c(-c4ccc(F)cc4)ncn3C3CCCC3)o2)cc1 [Compound 38, 5-(1-cyclopentyl-4-(4-fluorophenyl)-1H-imidazol-5-yl)-N-(4-isopropylphenyl)furan-2-carboxamide]
IC50 (TNIK; [1]): 46 nM
IC50 (TNIK; read-out: TNIK_IC50): 46 nM
IC50 (MAP4K4 (h)): 168 nM

CCc1cccc(NC(=O)c2ccc(-c3c(-c4ccc(F)cc4)ncn3C3CCCC3)o2)c1 [Compound 39, 5-(1-cyclopentyl-4-(4-fluorophenyl)-1H-imidazol-5-yl)-N-(3-ethylphenyl)furan-2-carboxamide]
IC50 (TNIK; [1]): 480 nM
IC50 (TNIK; read-out: TNIK_IC50): 480 nM
IC50 (MAP4K4 (h)): > 1000 nM

Cc1ccc(NC(=O)c2ccc(-c3c(-c4ccc(F)cc4)ncn3C3CCCC3)o2)cc1F [Compound 40, 5-(1-cyclopentyl-4-(4-fluorophenyl)-1H-imidazol-5-yl)-N-(3-fluoro-4-methylphenyl)furan-2-carboxamide]
IC50 (TNIK; [1]): 102 nM
IC50 (TNIK; read-out: TNIK_IC50): 102 nM
IC50 (MAP4K4 (h)): 243 nM

O=C(Nc1ccc(F)c(F)c1)c1ccc(-c2c(-c3ccc(F)cc3)ncn2C2CCCC2)o1 [Compound 41, 5-(1-cyclopentyl-4-(4-fluorophenyl)-1H-imidazol-5-yl)-N-(3,4-difluorophenyl)furan-2-carboxamide]
IC50 (TNIK; [1]): 180 nM
IC50 (TNIK; read-out: TNIK_IC50): 180 nM
IC50 (MAP4K4 (h)): 639 nM

O=C(Nc1ccc(Cl)cc1F)c1ccc(-c2c(-c3ccc(F)cc3)ncn2C2CCCC2)o1 [Compound 42, N-(4-chloro-2-fluorophenyl)-5-(1-cyclopentyl-4-(4-fluorophenyl)-1H-imidazol-5-yl)furan-2-carboxamide]
IC50 (TNIK; [1]): 19 nM
IC50 (TNIK; read-out: TNIK_IC50): 19 nM
IC50 (MAP4K4 (h)): 41.3 nM

Cc1cc(F)ccc1NC(=O)c1ccc(-c2c(-c3ccc(F)cc3)ncn2C2CCCC2)o1 [Compound 43, 5-(1-cyclopentyl-4-(4-fluorophenyl)-1H-imidazol-5-yl)-N-(4-fluoro-2-methylphenyl)furan-2-carboxamide]
IC50 (TNIK; [1]): 172 nM
IC50 (TNIK; read-out: TNIK_IC50): 172 nM
IC50 (MAP4K4 (h)): 139 nM

O=C(Nc1ccc(OC(F)(F)F)cc1)c1ccc(-c2c(-c3ccc(F)cc3)ncn2C2CCCC2)o1 [Compound 44, 5-(1-cyclopentyl-4-(4-fluorophenyl)-1H-imidazol-5-yl)-N-(4-(trifluoromethoxy)phenyl)furan-2-carboxamide]
IC50 (TNIK; [1]): 523 nM
IC50 (TNIK; read-out: TNIK_IC50): 523 nM
IC50 (MAP4K4 (h)): 610 nM

COc1ccc(NC(=O)c2ccc(-c3c(-c4ccc(F)cc4)ncn3C3CCCC3)o2)cc1Cl [Compound 45, N-(3-chloro-4-methoxyphenyl)-5-(1-cyclopentyl-4-(4-fluorophenyl)-1H-imidazol-5-yl)furan-2-carboxamide]
IC50 (TNIK; [1]): 165 nM
IC50 (TNIK; read-out: TNIK_IC50): 165 nM
IC50 (MAP4K4 (h)): 165 nM

CC(=O)Nc1ccc(NC(=O)c2ccc(-c3c(-c4ccc(F)cc4)ncn3C3CCCC3)o2)cc1 [Compound 46, N-(4-acetamidophenyl)-5-(1-cyclopentyl-4-(4-fluorophenyl)-1H-imidazol-5-yl)furan-2-carboxamide]
IC50 (TNIK; [1]): 24 nM
IC50 (TNIK; read-out: TNIK_IC50): 24 nM
IC50 (MAP4K4 (h)): 30.9 nM

Cc1ccc(NC(=O)c2ccc(-c3c(-c4ccc(F)cc4)ncn3C3CCCC3)o2)cc1 [Compound 47, 5-(1-cyclopentyl-4-(4-fluorophenyl)-1H-imidazol-5-yl)-N-(p-tolyl)furan-2-carboxamide]
IC50 (TNIK; [1]): < 10 nM
IC50 (TNIK; read-out: TNIK_IC50): 43.2 nM
IC50 (MAP4K4 (h)): 51.6 nM

Cc1cccc(NC(=O)c2ccc(-c3c(-c4ccc(F)cc4)ncn3C3CCCC3)o2)c1 [Compound 48, 5-(1-cyclopentyl-4-(4-fluorophenyl)-1H-imidazol-5-yl)-N-(m-tolyl)furan-2-carboxamide]
IC50 (TNIK; [1]): 40 nM
IC50 (TNIK; read-out: TNIK_IC50): 40 nM
IC50 (MAP4K4 (h)): 163 nM

O=C(Nc1ccc(Br)cc1)c1ccc(-c2c(-c3ccc(F)cc3)ncn2C2CCCC2)o1 [Compound 49, N-(4-bromophenyl)-5-(1-cyclopentyl-4-(4-fluorophenyl)-1H-imidazol-5-yl)furan-2-carboxamide]
IC50 (TNIK; [1]): 152 nM
IC50 (TNIK; read-out: TNIK_IC50): 152 nM
IC50 (MAP4K4 (h)): 436 nM

COc1ccccc1NC(=O)c1ccc(-c2c(-c3ccc(F)cc3)ncn2C2CCCC2)o1 [Compound 50, 5-(1-cyclopentyl-4-(4-fluorophenyl)-1H-imidazol-5-yl)-N-(2-methoxyphenyl)furan-2-carboxamide]
IC50 (TNIK; [1]): < 10 nM
IC50 (TNIK; read-out: TNIK_IC50): 3.86 nM
IC50 (MAP4K4 (h)): 4.46 nM

CC(=O)c1ccc(NC(=O)c2ccc(-c3c(-c4ccc(F)cc4)ncn3C3CCCCC3)o2)cc1 [Compound 51, N-(4-acetylphenyl)-5-(1-cyclohexyl-4-(4-fluorophenyl)-1H-imidazol-5-yl)furan-2-carboxamide]
IC50 (TNIK; [1]): 57 nM
IC50 (TNIK; read-out: TNIK_IC50): 57 nM
IC50 (MAP4K4 (h)): 126 nM

COc1ccc(NC(=O)c2ccc(-c3c(-c4ccc(F)cc4)ncn3C3CCCCC3)o2)cc1OC [Compound 52, 5-(1-cyclohexyl-4-(4-fluorophenyl)-1H-imidazol-5-yl)-N-(3,4-dimethoxyphenyl)furan-2-carboxamide]
IC50 (TNIK; [1]): 60 nM
IC50 (TNIK; read-out: TNIK_IC50): 60 nM
IC50 (MAP4K4 (h)): 104 nM
